According to BigSolDB 2.1:

Nc1ccc(S(=O)(=O)[O-])c(N)c1.[Na+]
solubility (mole fraction)
Details	in isopropanol	in methanol	in propylene glycol
273.15 K	2.2e-05	0.000977	0.000831
278.15 K	2.78e-05	0.00109	0.00121
283.15 K	3.51e-05	0.00145	0.00145
288.15 K	4.43e-05	0.00173	0.00196
293.15 K	5.57e-05	0.00228	0.00235
298.15 K	6.99e-05	0.00274	0.0028
303.15 K	8.76e-05	0.00318	0.00359
308.15 K	0.000109	0.00395	0.00431
313.15 K	0.000136	0.00466	0.00577
318.15 K	0.00017	0.00558	0.00749
323.15 K	0.000211	0.00661	0.00963
